{"source": "patent US11229664B2", "about": "“Treatment of myelosuppression” (priority 2012, dated 2022)", "system": "platelets", "assay": "Clinical trial, metastatic pancreatic cancer: platelet count / thrombocytopenia grade", "format": "in vivo, human", "set-up": "Platelet count at start of cycle, Cycle 1: unit not given here", "excerpt": "Male and non-pregnant, non-lactating, female patients, aged 18 to 75, with histologically confirmed metastatic adenocarcinoma of the pancreas were enrolled in the trial. […] Treatment consisted of a series of 28-day cycles, wherein the last day of one cycle (e.g., day 28, cycle 1) was immediately followed by the first day of the next cycle (e.g., day 1, cycle 2). […] Nab-paclitaxel and gemcitabine therapy was given as described in the prescribing information for Abraxane® and Gemzar®. See also, Von Hoff et al., 2011, J. […] As a substantially non-anticoagulant heparinoid, ODSH can be administered at a dose that is greater than the fully anticoagulant dose of unfractionated heparin, without concern for anticoagulant effect, as shown in the Results below. An initial run-in period was conducted in which ten patients were treated with the gemcitabine, nab-paclitaxel, and ODSH regimen described above. After all ten patients had completed at least one 28-day cycle, the data were reviewed and an open-label randomized study initiated, with two arms (ODSH arm and Control arm). In the ODSH arm, the dosing regimen was the same as in the run-in period (gemcitabine, nab-paclitaxel, and ODSH). In the Control arm, patients were given the same gemcitabine and nab-paclitaxel regimen as in the run-in period, but without ODSH. […] Platelet counts, total white blood cell counts, and absolute neutrophil counts were performed. Grading of thrombocytopenia and/or neutropenia was performed according to the following standards: [table]", "key": {"[1]": {"details": "ODSH 4 mg/kg bolus + 0.375 mg/kg/hr 48 h, adjunct to gemcitabine/nab-paclitaxel"}, "[2]": {"details": "ODSH adjunct to gemcitabine/nab-paclitaxel"}, "[3]": {"details": "ODSH adjunctive to gemcitabine and nab-paclitaxel, blood drawn before treatment that day, individual patients"}, "[4]": {"details": "all samples (FIG. 10A), ODSH adjunct to gemcitabine/nab-paclitaxel"}}, "note": "Where “and” joins values, the source holds several entries; their conditions need not be identical. Identical values can stand only once.", "data": [{"substance": "substantially 2-O, 3-O desulfated heparin [ODSH]", "values": [{"measurement": "Patients with platelet count at beginning of fourth cycle greater than at beginning of first cycle", "setting": "[1]", "result": "9 out of 10"}, {"measurement": "Patients with platelet count at beginning of third cycle greater than at beginning of first cycle", "setting": "[1]", "result": "Eight out of 9"}, {"measurement": "Patients with platelet count at beginning of second cycle greater than at beginning of first cycle", "setting": "ODSH 4 mg/kg bolus + 0.375 mg/kg/hr 48 h, days 1, 8, 15 of 28-day cycles, adjunct to gemcitabine/nab-paclitaxel", "result": "Ten out of 10 and 10/10"}, {"measurement": "Patients exhibiting thrombocytopenia at the start of the second cycle", "setting": "[2]", "result": "None"}, {"measurement": "Patients exhibiting thrombocytopenia at the start of the third cycle", "setting": "[2]", "result": "one of 8"}, {"measurement": "Patients with platelet counts higher at the beginning of cycle 3 than at the beginning of cycle 2", "setting": "[2]", "result": "6/9"}, {"measurement": "Platelet Count, Cycle 1 Day 1", "setting": "ODSH adjunctive to gemcitabine and nab-paclitaxel, blood drawn before treatment administration (before any chemotherapy), individual patients", "result": "313 ×10^3/μl blood and 264 ×10^3/μl blood and 191 ×10^3/μl blood and 274 ×10^3/μl blood and 276 ×10^3/μl blood and 120 ×10^3/μl blood and 271 ×10^3/μl blood and 342 ×10^3/μl blood and 429 ×10^3/μl blood and 180 ×10^3/μl blood"}, {"measurement": "Platelet Count, Cycle 1 Day 8", "setting": "[3]", "result": "205 ×10^3/μl blood and 167 ×10^3/μl blood and 108 ×10^3/μl blood and 150 ×10^3/μl blood and 239 ×10^3/μl blood and 86 ×10^3/μl blood (2×) and 230 ×10^3/μl blood and 206 ×10^3/μl blood and 214 ×10^3/μl blood"}, {"measurement": "Platelet Count, Cycle 1 Day 15", "setting": "[3]", "result": "135 ×10^3/μl blood and 178 ×10^3/μl blood and 108 ×10^3/μl blood and 75 ×10^3/μl blood and 220 ×10^3/μl blood and 76 ×10^3/μl blood and 181 ×10^3/μl blood and 134 ×10^3/μl blood and 260 ×10^3/μl blood and 63 ×10^3/μl blood"}, {"measurement": "Platelet Count, Cycle 2 Day 1", "setting": "[3]", "result": "419 ×10^3/μl blood and 322 ×10^3/μl blood and 312 ×10^3/μl blood and 574 ×10^3/μl blood and 445 ×10^3/μl blood and 175 ×10^3/μl blood and 417 ×10^3/μl blood and 614 ×10^3/μl blood and 532 ×10^3/μl blood and 274 ×10^3/μl blood"}, {"measurement": "Platelet Count, Cycle 2 Day 8", "setting": "[3]", "result": "434 ×10^3/μl blood and 336 ×10^3/μl blood and 241 ×10^3/μl blood and 424 ×10^3/μl blood and 05 ×10^3/μl blood and 83 ×10^3/μl blood and 402 ×10^3/μl blood and 375 ×10^3/μl blood and 257 ×10^3/μl blood and 95 ×10^3/μl blood"}, {"measurement": "Platelet Count, Cycle 2 Day 15", "setting": "[3]", "result": "209 ×10^3/μl blood and 207 ×10^3/μl blood and 132 ×10^3/μl blood and 167 ×10^3/μl blood and 186 ×10^3/μl blood (2×) and 70 ×10^3/μl blood and 178 ×10^3/μl blood and 170 ×10^3/μl blood and 54 ×10^3/μl blood"}, {"measurement": "Platelet Count, Cycle 3 Day 1", "setting": "[3]", "result": "510 ×10^3/μl blood and 327 ×10^3/μl blood and 362 ×10^3/μl blood and 655 ×10^3/μl blood and 418 ×10^3/μl blood and 123 ×10^3/μl blood and 487 ×10^3/μl blood and 628 ×10^3/μl blood and 387 ×10^3/μl blood and −361 ×10^3/μl blood"}, {"measurement": "Platelet Count, Cycle 3 Day 8", "setting": "[3]", "result": "435 ×10^3/μl blood and 325 ×10^3/μl blood and 362 ×10^3/μl blood (2×) and 388 ×10^3/μl blood and 223 ×10^3/μl blood and 119 ×10^3/μl blood and 355 ×10^3/μl blood and 371 ×10^3/μl blood and 179 ×10^3/μl blood"}, {"measurement": "Platelet Count, Cycle 3 Day 15", "setting": "[3]", "result": "207 ×10^3/μl blood and 170 ×10^3/μl blood and 163 ×10^3/μl blood and 188 ×10^3/μl blood and 171 ×10^3/μl blood (2×) and 63 ×10^3/μl blood and 172 ×10^3/μl blood and 189 ×10^3/μl blood and 71 ×10^3/μl blood"}, {"measurement": "Platelet Count, Cycle 4 Day 1", "setting": "[3]", "result": "586 ×10^3/μl blood and 402 ×10^3/μl blood and 292 ×10^3/μl blood and 478 ×10^3/μl blood and 667 ×10^3/μl blood and 184 ×10^3/μl blood and 406 ×10^3/μl blood and 626 ×10^3/μl blood and 382 ×10^3/μl blood and 387 ×10^3/μl blood"}, {"measurement": "Platelet Count, Cycle 4 Day 8", "setting": "[3]", "result": "464 ×10^3/μl blood and 339 ×10^3/μl blood and 355 ×10^3/μl blood and 468 ×10^3/μl blood and 193 ×10^3/μl blood and 188 ×10^3/μl blood and 507 ×10^3/μl blood and 448 ×10^3/μl blood and 185 ×10^3/μl blood"}, {"measurement": "Platelet Count, Cycle 4 Day 15", "setting": "[3]", "result": "203 ×10^3/μl blood and 170 ×10^3/μl blood and 140 ×10^3/μl blood and 163 ×10^3/μl blood and 149 ×10^3/μl blood and 129 ×10^3/μl blood and 339 ×10^3/μl blood and 169 ×10^3/μl blood and 202 ×10^3/μl blood and 78 ×10^3/μl blood"}, {"measurement": "Platelet Count, Cycle 5 Day 1", "setting": "[3]", "result": "499 ×10^3/μl blood and 351 ×10^3/μl blood and 266 ×10^3/μl blood and 389 ×10^3/μl blood and 275 ×10^3/μl blood and 106 ×10^3/μl blood and 512 ×10^3/μl blood and 607 ×10^3/μl blood and 427 ×10^3/μl blood and −288 ×10^3/μl blood"}, {"measurement": "Platelet Count, Cycle 5 Day 8", "setting": "[3]", "result": "231 ×10^3/μl blood and 288 ×10^3/μl blood and 241 ×10^3/μl blood and 325 ×10^3/μl blood and 192 ×10^3/μl blood and 94 ×10^3/μl blood and 378 ×10^3/μl blood and 377 ×10^3/μl blood and 403 ×10^3/μl blood and 188 ×10^3/μl blood"}, {"measurement": "Platelet Count, Cycle 5 Day 15", "setting": "[3]", "result": "132 ×10^3/μl blood and 169 ×10^3/μl blood and 153 ×10^3/μl blood and 109 ×10^3/μl blood and 58 ×10^3/μl blood and 193 ×10^3/μl blood and 194 ×10^3/μl blood and 72 ×10^3/μl blood"}, {"measurement": "Platelet Count, Cycle 6 Day 1", "setting": "[3]", "result": "288 ×10^3/μl blood and 370 ×10^3/μl blood and 294 ×10^3/μl blood and 489 ×10^3/μl blood and 114 ×10^3/μl blood and 371 ×10^3/μl blood and 503 ×10^3/μl blood and 275 ×10^3/μl blood"}, {"measurement": "Platelet Count, Cycle 6 Day 8", "setting": "[3]", "result": "384 ×10^3/μl blood and 321 ×10^3/μl blood and 207 ×10^3/μl blood and 336 ×10^3/μl blood and 85 ×10^3/μl blood and 313 ×10^3/μl blood and 493 ×10^3/μl blood and 148 ×10^3/μl blood"}, {"measurement": "Platelet Count, Cycle 6 Day 15", "setting": "[3]", "result": "169 ×10^3/μl blood and 162 ×10^3/μl blood and 128 ×10^3/μl blood and 102 ×10^3/μl blood and 54 ×10^3/μl blood and 338 ×10^3/μl blood and 164 ×10^3/μl blood and 72 ×10^3/μl blood"}, {"measurement": "Mean and median platelet counts at day 15 of treatment cycles 2 and 3", "setting": "[4]", "result": "remained in the normal range"}, {"measurement": "Mean and median platelet counts on the first day of treatment cycles 2 and 3", "setting": "[4]", "result": "above 150,000"}, {"measurement": "Platelet count at start of cycle, Cycle 1", "setting": "day 1 of cycle 1, before any chemotherapy, ODSH adjunctive to gemcitabine and nab-paclitaxel, individual patients", "result": "264 and 191 and 274 and 276 and 120 and 271 and 342 and 429 and 180 and 313"}, {"measurement": "Platelet count at start of cycle, Cycle 2", "setting": "day 1 of cycle 2, ODSH adjunctive to gemcitabine and nab-paclitaxel, individual patients", "result": "322 and 312 and 574 and 445 and 175 and 417 and 614 and 537 and 274 and 419"}, {"measurement": "Platelet count at start of cycle, Cycle 3", "setting": "day 1 of cycle 3, ODSH adjunctive to gemcitabine and nab-paclitaxel, individual patients", "result": "327 and 362 and 655 and 418 and 123 and 628 and 387 and 361 and 510"}]}]}
